# From publication PMC13130965, “An Integrated Approach Combining Regulatory Tests in tg(cyp19a1b:GFP) Zebrafish Embryos to Assess Toxicity, Developmental Effects, and Estrogenic Activity of Chemicals: A Case Study with Bisphenol A Substitutes” (Environmental Science & Technology, 2026)
# Read-outs that look alike come from different tables or passages of the source.
# What was measured:
# [1] = test system: tg(cyp19a1b:GFP) zebrafish embryos; assay: Refined Fish Embryo Acute Toxicity test (FET, OECD TG 236): mortality; type: in vivo, zebrafish (Danio rerio); conditions: nominal, brackets 95% CI
# Experimental: (§1) Exposures were carried out in presaturated 24-well plates containing one embryo per well in 2 mL of test solution. The exposure was performed under semistatic conditions, with daily renewal of the test solution. The concentration ranges tested, along with a control with the same percentage of solvent alone, are recapitulated in Table S1. All exposure concentrations are reported as nominal. During the time course of the refined FET tests, embryos were observed after 8 h (coagulation), 24 h (lack of somite formation and nondetachment of the tail), and 48, 72, and 96 h of exposure (nondetection of the heartbeat). […] Moreover, hatching rate and nonlethal developmental effects (i.e., yolk deformity, growth retardation, spontaneous movement, edema, blood tail circulation, heart rate, pigmentation, head and tail/spinal malformations, and hemorrhage) were monitored daily. Tail/spinal malformations included lordosis, kyphosis, scoliosis, and reduced tail length.
# (§2) This analysis considered all nonlethal developmental end points monitored in the refined FET assay (see above), except effects on hatching, pigmentation, spontaneous movement, and blood circulation. A teratogenic index (TI) was then calculated as the ratio LC50/EC50.
# (§3) Baseline toxicity and experimental FET LC50 values were used to calculate toxic ratios (TR = predicted baseline toxicity LC50/experimental FET LC50). Compounds with TR < 10 were considered as baseline toxicants.
# Zebrafish embryos = conditions: cited from earlier work; for LOEC (body length, GnRH3 neurons, reproductive neuroendocrine-related genes and hormones) / NOEC (body length, GnRH3 neurons, reproductive neuroendocrine-related genes and hormones): 120h-exposure, ref Qiu et al. (2021); for LC10(96h): ref Blanc et al. (2019)
# zebrafish ERβ2 (zfERβ2) = zebrafish ERβ2 (zfERβ2) (Danio rerio, UniProt Q7ZU32); assay: ZELH-zfERβ2 luciferase reporter gene assay; type: cell-based; conditions: read-out: maximal efficacy
# Experimental: The ZELH-zfERs reporter cell line was previously established after a two-step stable transfection of the zebrafish hepatic cell line ZFL with the luciferase gene under the control of ERE (yielding the ZELH cell line that expresses no functional ER) and the zebrafish ER subtype β2 (yielding the ZELH-zfERβ2 cell line). Cells were cultured, exposed to chemicals for 72 h, and measured for luciferase activity exactly as previously described. , For each chemical, serial dilutions were prepared in DMSO and tested in three independent experiments. The final DMSO concentration in the culture medium was always 0.1% v/v. All tested concentrations refer to nominal concentrations.
# [2] = test system: cyp19a1b:GFP (brain aromatase) in tg(cyp19a1b:GFP) zebrafish embryos; assay: EASZY assay (OECD TG 250): GFP induction; type: in vivo, zebrafish (Danio rerio); conditions: for EC50: read-out: EASZY relative EC50, nominal
# Experimental: The tests were conducted according to OECD TG 250. Newly fertilized cyp19a1b-GFP eggs were transferred to glass crystallizing dishes and exposed for 96 h in a humidified climate chamber (27 ± 2 °C) under semistatic conditions with a total renewal of the test solutions each day. Each condition consisted of three crystallizing dishes, each containing 7 embryos and 15 mL of test medium. Embryos were exposed to a range of nonlethal concentrations of chemicals as determined previously based on the refined FET assays. The tested concentration ranges of bisphenols, along with a control with the same percentage of solvent alone, are summarized in Table S2. All exposure concentrations are reported as nominal. At the end of exposure, transgenic zebrafish embryos were collected for fluorescence imaging to quantify GFP intensity. At the end of the experiments, all living zebrafish embryos were euthanized as described above. […] ICI was added together with bisphenols from 0 to 4 dpf (days post fertilization). […] In all coexposure experiments, the final DMSO concentration was 0.02% (v/v).
# For fluorescence imaging, GFP fold induction was expressed as mean ± SEM, and values were compared to the DMSO control using one-way ANOVA followed by Dunnett’s posthoc test. […]
# [3] = test system: tg(cyp19a1b:GFP) zebrafish embryos; assay: Refined FET: developmental effects / malformations; type: in vivo, zebrafish (Danio rerio); conditions: nominal; for EC50: Danio rerio, end of 96 h exposure, read-out: EC50 malformations (cumulative sublethal end points); for LOEC deformity of yolk: at least 10% of embryos affected
# Experimental: as §1, §2
# hERβ [4] = test system: hERβ; parameters: method as in Grimaldi et al.; conditions: HELN-hERβ; ref Grimaldi et al.; cited from earlier work
# [5] = Refined Fish Embryo Acute Toxicity test (FET, OECD TG 236): mortality; type: in vivo, zebrafish (Danio rerio); conditions: tg(cyp19a1b:GFP), zebrafish, in vivo, other: waterborne exposure of embryos in test solution, LC50 (96h) experimental (FET test), nominal, brackets 95% CI
# Experimental: as §1, §2, §3
# hERβ [6] = test system: hERβ; parameters: method as in Pelch et al.; conditions: HepG2-hERβ, ref Pelch et al., cited from earlier work; for EC50: NA = not active
# [7] = ref Adamovsky et al.; cited from earlier work
# Adult Zebrafish = conditions: ref Ren et al. (2017); cited from earlier work
# [8] = test system: cyp19a1b:GFP (brain aromatase) in tg(cyp19a1b:GFP) zebrafish embryos; assay: Refined FET: GFP fluorescence imaging at 96 h; type: in vivo, zebrafish (Danio rerio); conditions: nominal
# Experimental: as §1, with “All the tests were conducted according to OECD TG 236, except for the temperature (27 ± 2 °C), which was aligned with the OECD TG 250 (see below). Exposures” for “Exposures”, “length. […] To do so, each embryo was photographed and analyzed as described by Brion et al. At the end of the refined FET assay, all living zebrafish embryos were euthanized using a protocol combining anesthesia induced by 168 mg/L tricaine (Pharmaq, delivered from Vetofish, Chateauneuf-les-Martigues, France) and the addition of bleach solution (sodium hypochlorite 6.15%; 1 volume of bleach to 5 volumes of water) to induce death.” for “length.”
# For fluorescence imaging, GFP fold induction was expressed as mean ± SEM, and values were compared to the DMSO control using one-way ANOVA followed by Dunnett’s posthoc test.
# [9] = zebrafish embryos, ref Gao et al.
# [10] = zebrafish embryos, ref Ren et al. (2017)
# [11] = 150h exposure, ref Song et al. (2014)
# zebrafish ERβ2 (zfERβ2), sequence (Q7ZU32 1-553): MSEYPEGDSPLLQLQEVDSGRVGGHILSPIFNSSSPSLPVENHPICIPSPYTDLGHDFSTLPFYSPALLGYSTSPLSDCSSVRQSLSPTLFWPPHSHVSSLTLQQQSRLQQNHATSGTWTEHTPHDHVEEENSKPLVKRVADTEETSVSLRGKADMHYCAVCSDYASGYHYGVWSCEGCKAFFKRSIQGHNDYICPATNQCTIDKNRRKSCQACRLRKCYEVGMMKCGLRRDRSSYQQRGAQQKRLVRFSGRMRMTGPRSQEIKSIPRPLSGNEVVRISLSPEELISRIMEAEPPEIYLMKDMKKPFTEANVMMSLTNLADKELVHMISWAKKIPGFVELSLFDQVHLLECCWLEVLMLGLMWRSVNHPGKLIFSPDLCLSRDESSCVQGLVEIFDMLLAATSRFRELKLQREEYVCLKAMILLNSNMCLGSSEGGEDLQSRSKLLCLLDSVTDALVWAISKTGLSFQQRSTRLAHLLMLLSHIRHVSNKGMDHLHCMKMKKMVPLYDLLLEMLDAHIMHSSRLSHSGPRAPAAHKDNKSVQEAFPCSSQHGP
Compound,Emax (zebrafish ERβ2 (zfERβ2)) [%],EC50 [3] [µg/mL],LOEC edema [3] [mg/L],LOEC head malformations [3] [mg/L],LOEC heart rate disruption [3] [mg/L],LOEC hemorrhage [3] [mg/L],LOEC no blood tail circulation [3] [mg/L],LOEC tail/spinal malformations [3] [mg/L],LOEC deformity of yolk [3] [mg/L],EC50 (hERβ [4]) [nM],maximal efficacy (hERβ [4]) [%],LC50 at 96 h [5] [µg/mL],maximal efficacy (hERβ [6]) [%],Log Kow [7],further results
"Nc1ccc(Cl)c(Cl)c1 [3,4-DCA, reference compound]",,,,,,,,,,,,,,,LC50 (96h) experimental (FET test) [1]: 2.46 mg/L; mean LC50 of FET positive control (Zebrafish embryos; ref OECD TG 236 validation report): 2.7 mg/L
"Oc1ccc(Oc2ccc(O)cc2)cc1 [4,4’-ODP, 4-(4-hydroxyphenoxy)phenol]",61,0.35,0.99,2.96,2.96,0.99,8.89,2.96,2.96,3060,72,17.1,,,"EC50 ([2]; Danio rerio, 96 h, 96 h): 0.363 µg/mL; LOEC growth retardation [3]: 8.89 mg/L; LOEC no/Less pigmentation [3]: 0.99 mg/L"
"CCC(C)(c1ccc(O)cc1)c1ccc(O)cc1 [BPB, 4-[2-(4-hydroxyphenyl)butan-2-yl] phenol]",66,5.4,5,10,10,10,,,10,128,60,6.85,56,3.95,"minimal effective concentration ([2]; Danio rerio, 96 h, read-out: EASZY LOEC (GFP induction), nominal): 0.312 µg/mL; LOEC no spontaneous movement [3]: 10 mg/L; LC50(24h) (Adult Zebrafish): 5.07 mg/L; LC50(48h) (Adult Zebrafish): 4.64 mg/L; LC50(72h) (Adult Zebrafish): 4.15 mg/L; LC50(96h) (Adult Zebrafish): 4.15 mg/L; LOEC (body length, GnRH3 neurons, reproductive neuroendocrine-related genes and hormones) (Zebrafish embryos): 100 µg/L; NOEC (body length, GnRH3 neurons, reproductive neuroendocrine-related genes and hormones) (Zebrafish embryos): 1 µg/L; NOEC (developmental toxicity) (Zebrafish embryos; Wildtype (AB/TL), 1-6 dpf static + 6-9 dpf semistatic, ref Catron et al. (2018; 2019)): 5.1 µM; LC50 (Zebrafish embryos; read-out: LC50(96h), Wildtype AB, 96h-exposure, ref Arrokhman et al. (2023)): 28 µM; LC50 (96h) literature (Zebrafish embryos; zebrafish embryos, ref Arrokhman et al.): 6.79 mg/L; LC50 (96h) literature (Zebrafish embryos; [9]): 3.52 mg/L; Body length LOEC (Zebrafish embryos; [10]): 2 mg/L; Body length NOEC (Zebrafish embryos; [10]): 1 mg/L; LC50(24h) (Zebrafish embryos; [10]): 7.18 mg/L; LC50(48h) (Zebrafish embryos; [10]): 6.54 mg/L; LC50(72h) (Zebrafish embryos; [10]): 4.53 mg/L; LC50 (96h) literature (Zebrafish embryos; zebrafish embryos, ref Ren et al.): 3.88 mg/L"
"Cc1cc(C(C)(C)c2ccc(O)c(C)c2)ccc1O [BPC, 4-[2-(4-hydroxy-3-methylphenyl)propan-2-yl]-2-methylphenol]",66,2.77,,,8.53,8.53,8.53,8.53,,,,4.92,,4.32,LC50 (96h) literature (Zebrafish embryos; [9]): 2.22 mg/L
"O=S(=O)(c1ccc(O)cc1)c1ccc(O)cc1 [BPS, 4-(4-hydroxyphenyl)sulfonylphenol]",85,,,,,,,,400,1720,100,,77,,"EC50 ([2]; Danio rerio, 96 h, 96 h): 62.7 µg/mL; EC50 (hERβ [6]): 2100 nM; LC10(96h) (Zebrafish embryos; 4-days exposure): > 100 mg/L; Hatching success EC50(72h) (Zebrafish embryos; 4-days exposure, ref Moreman et al. (2017)): 155 (15) mg/L; LOEC (body length, GnRH3 neurons, reproductive neuroendocrine-related genes and hormones) (Zebrafish embryos): 100 µg/L; NOEC (body length, GnRH3 neurons, reproductive neuroendocrine-related genes and hormones) (Zebrafish embryos): 1 µg/L; LC10(96h) (Zebrafish embryos): > 400 µM; Body length LOEC (Zebrafish embryos; [10]): 350 mg/L; Body length NOEC (Zebrafish embryos; [10]): 300 mg/L; Hatching rate EC50(120h) (Zebrafish embryos; [10]): 200 mg/L; Heart rate EC50(78h) (Zebrafish embryos; [10]): 318 mg/L; EC50 ([8]; Danio rerio, Hill model, read-out: EC50 GFP induction in refined FET): 35.7 µg/mL; EC10 GFP induction in refined FET [8]: 16.6 mg/L; EC20 GFP induction in refined FET [8]: 22.0 mg/L"
"O=S(=O)(c1ccc(O)cc1)c1ccc(OCc2ccccc2)cc1 [BPS-MPE, 4-(4-phenylmethoxyphenyl) sulfonylphenol]",,3.45,,,,,,,,,,3.17,4,4.18,
"CC(C)(c1cc(Cl)c(O)c(Cl)c1)c1cc(Cl)c(O)c(Cl)c1 [TCBPA, Tetrachloro-bisphenol A]",42,0.48,0.5,1,1,,1,0.5,1,68000,21,0.88,15,6.19,"estrogenic activity in EASZY assay ([2]; zebrafish, in vivo): absence of estrogenic activity; LOEC no spontaneous movement [3]: 2 mg/L; LOEC no/Less pigmentation [3]: 1 mg/L; concentrations causing lethal effects (Zebrafish embryos; 3-6 dpf exposure, ref Riu et al. (2014)): above 1 µM; LC50(144h) (Zebrafish embryos; [11]): 0.75 mg/L; LOAELs (Zebrafish embryos; [11]): 1 mg/L; LC50 (96h) literature (Zebrafish embryos; zebrafish embryos, ref Song et al.): ≈ 1 mg/L"
